# Source: patent US7304174B2, “CaSR antagonist” (Japan Tobacco Inc., priority 2003, dated 2007)
# Target: T1, human calcium receptor (Homo sapiens, UniProt P41180)
# T1 construct: expressed in transfected cells; host or cells: cell strain derived from rat adrenal, co-transformed with luciferase cDNA
# T1 sequence (P41180 20-1078): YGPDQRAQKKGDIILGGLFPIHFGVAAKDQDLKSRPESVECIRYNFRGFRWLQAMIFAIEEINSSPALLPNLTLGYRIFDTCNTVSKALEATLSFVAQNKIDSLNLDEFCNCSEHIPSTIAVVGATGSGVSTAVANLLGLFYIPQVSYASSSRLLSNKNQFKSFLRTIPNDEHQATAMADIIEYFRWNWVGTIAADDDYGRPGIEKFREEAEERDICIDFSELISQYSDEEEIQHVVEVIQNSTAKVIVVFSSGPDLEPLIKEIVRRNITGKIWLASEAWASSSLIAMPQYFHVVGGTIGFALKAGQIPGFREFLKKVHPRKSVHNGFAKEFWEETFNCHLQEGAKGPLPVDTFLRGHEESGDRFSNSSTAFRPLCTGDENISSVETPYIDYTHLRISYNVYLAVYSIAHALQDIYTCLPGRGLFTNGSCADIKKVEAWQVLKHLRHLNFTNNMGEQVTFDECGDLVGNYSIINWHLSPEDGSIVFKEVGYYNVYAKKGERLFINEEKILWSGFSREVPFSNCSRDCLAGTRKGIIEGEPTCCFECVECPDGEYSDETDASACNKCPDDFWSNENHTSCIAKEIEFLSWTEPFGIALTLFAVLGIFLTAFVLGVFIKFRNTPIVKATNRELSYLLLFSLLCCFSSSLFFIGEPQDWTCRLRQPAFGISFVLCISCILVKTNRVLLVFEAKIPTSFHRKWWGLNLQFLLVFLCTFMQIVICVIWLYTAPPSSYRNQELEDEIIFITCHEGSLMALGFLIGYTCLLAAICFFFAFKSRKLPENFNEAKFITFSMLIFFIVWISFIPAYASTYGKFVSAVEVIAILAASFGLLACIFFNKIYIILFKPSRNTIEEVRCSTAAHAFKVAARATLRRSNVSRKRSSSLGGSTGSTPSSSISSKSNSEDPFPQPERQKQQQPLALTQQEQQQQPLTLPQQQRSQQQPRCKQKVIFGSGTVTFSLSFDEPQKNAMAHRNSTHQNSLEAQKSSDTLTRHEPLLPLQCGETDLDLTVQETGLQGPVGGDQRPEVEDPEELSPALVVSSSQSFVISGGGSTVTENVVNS
# Test: Evaluation of antagonistic action on calcium receptor using reporter gene (luciferase)
# Assay type: cell-based
# Conditions: transformed rat adrenal derived cells, 5 mM calcium chloride, culture 4 hrs, luciferase activity; read-out: Reporter gene assay (IC50, concentration showing 50% inhibitory rate)
# Method: Evaluation of Antagonistic Action on Calcium Receptor Using Reporter Gene
# Luciferase cDNA and human calcium receptor cDNA were introduced into a cell strain derived from rat adrenal to transform the cells, and the transformed cells were cultured in a medium (80 μl, F12 medium containing 0.5% dialyzed horse serum and 0.25% dialyzed bovine fetal serum). A dimethyl sulfoxide solution containing a test compound at 0.1-10000 μM was diluted 100-fold with the medium and added to the test compound group at 10 μl per well (dimethyl sulfoxide final concentration 0.1%). In the same manner as in test compound group, dimethyl sulfoxide 100-fold diluted with medium was added to a control group and a blank group. Then, 50 mM calcium chloride-containing medium was added to every well except the blank group at 10 μl per well (final concentration 5 mM). A medium containing 50 mM calcium chloride was added to the control group at 10 μl per well, such that the final calcium concentration of the medium became 5 mM. A medium alone was added to the blank group. After culture for 4 hrs, luciferase substrate was added and the luciferase activity was measured with a photoluminometer. The inhibitory rate (%) was calculated from the obtained measured values according to the following formula.
# Based on the results, the concentration (IC50) showing 50% inhibitory rate was determined. The results are shown in the aforementioned Tables 1 to 60.
row,SMILES,IC50 [nM]
1,"COc1ccc(CC(C)(C)NC[C@@H](O)CO[C@H](C)c2ccccc2-c2ccc(C(=O)O)c(C(F)(F)F)c2)c(F)c1 [Example 1-29, 2′-[1-[(2R)-3-[[1-(2-fluoro-4-methoxyphenyl)-2-methylpropan-2-yl]amino]-2-hydroxypropoxy]ethyl]-3-(trifluoromethyl)biphenyl-4-carboxylic acid]",82
2,"CCCc1cc(-c2ccccc2[C@@H](C)OC[C@H](O)CNC(C)(C)Cc2ccc3ccccc3c2)ccc1C(=O)O [Example 1-36, 2′-[1-[(2R)-3-[[1-(naphthalen-2-yl)-2-methylpropan-2-yl]amino]-2-hydroxypropoxy]ethyl]-3-propylbiphenyl-4-carboxylic acid]",2
3,"CCCc1cc(-c2ccccc2[C@@H](C)OC[C@H](O)CNC(C)(C)Cc2ccc(C)c(F)c2)ccc1C(=O)O [Example 1-38, 2′-[1-[(2R)-3-[[1-(3-fluoro-4-methylphenyl)-2-methylpropan-2-yl]amino]-2-hydroxypropoxy]ethyl]-3-propylbiphenyl-4-carboxylic acid]",2
4,"C[C@@H](OC[C@H](O)CNC(C)(C)Cc1ccc2ccccc2c1)c1ccccc1-c1ccc(C(=O)O)c(-c2ccccc2)c1 [Example 1-41, 2-[1-[(2R)-3-[[1-(naphthalen-2-yl)-2-methylpropan-2-yl]amino]-2-hydroxypropoxy]ethyl]-m-terphenyl-4′-carboxylic acid]",3
5,"CC(C)Cc1cc(-c2ccccc2[C@@H](C)OC[C@H](O)CNC(C)(C)Cc2ccc3ccccc3c2)ccc1C(=O)O [Example 1-45, 3-isobutyl-2′-[1-[(2R)-3-[[1-(naphthalen-2-yl)-2-methylpropan-2-yl]amino]-2-hydroxypropoxy]ethyl]biphenyl-4-carboxylic acid]",2
6,"Cc1ccc(CC(C)(C)NC[C@@H](O)CO[C@H](C)c2ccccc2-c2ccc(CO)c(C(=O)O)c2)cc1F [Example 1-47, 2′-[1-[(2R)-3-[[1-(3-fluoro-4-methylphenyl)-2-methylpropan-2-yl]amino]-2-hydroxypropoxy]ethyl]-4-(hydroxymethyl)biphenyl-3-carboxylic acid]",65
7,"C[C@@H](OC[C@H](O)CNC(C)(C)Cc1ccc2ccccc2c1)c1ccccc1-c1ccc(C(=O)O)c(O)c1 [Example 1-49, 2′-[1-[(2R)-3-[[1-(naphthalen-2-yl)-2-methylpropan-2-yl]amino]-2-hydroxypropoxy]ethyl]-3-hydroxybiphenyl-4-carboxylic acid]",2
8,"Cc1ccc(CC(C)(C)NC[C@@H](O)CO[C@H](C)c2ccccc2-c2ccc(C(=O)O)c(O)c2)cc1F [Example 1-50, 2′-[1-[(2R)-3-[[1-(3-fluoro-4-methylphenyl)-2-methylpropan-2-yl]amino]-2-hydroxypropoxy]ethyl]-3-hydroxybiphenyl-4-carboxylic acid]",2
9,"CC(C)c1cc(-c2ccccc2[C@@H](C)OC[C@H](O)CNC(C)(C)Cc2ccc(Cl)c(F)c2)ccc1C(=O)O [Example 1-52, 2′-[1-[(2R)-3-[[1-(4-chloro-3-fluorophenyl)-2-methylpropan-2-yl]amino]-2-hydroxypropoxy]ethyl]-3-isopropylbiphenyl-4-carboxylic acid]",3
10,"CCC(C)c1cc(-c2ccccc2[C@@H](C)OC[C@H](O)CNC(C)(C)Cc2ccc(C)c(F)c2)ccc1C(=O)O (stereo partly drawn) [Example 1-53, 2′-[1-[(2R)-3-[[1-(3-fluoro-4-methylphenyl)-2-methylpropan-2-yl]amino]-2-hydroxypropoxy]ethyl]-3-(1-methylpropyl)biphenyl-4-carboxylic acid]",15

# Further compounds by falling IC50, results first:
row,IC50 [nM],SMILES
1,24,"Cc1ccc(CC(C)(C)NC[C@@H](O)CO[C@H](C)c2ccccc2-c2ccc(C(=O)O)c(C)c2C)cc1F [Example 1-42, 2′-[1-[(2R)-3-[[1-(3-fluoro-4-methylphenyl)-2-methylpropan-2-yl]amino]-2-hydroxypropoxy]ethyl]-2,3-dimethylbiphenyl-4-carboxylic acid]"
2,23,"Cc1cc(C(=O)O)ccc1-c1ccccc1[C@@H](C)OC[C@H](O)CNC(C)(C)Cc1ccc2ccccc2c1 [Example 1-54, 2-methyl-2′-[1-[(2R)-3-[[1-(naphthalen-2-yl)-2-methylpropan-2-yl]amino]-2-hydroxypropoxy]ethyl]biphenyl-4-carboxylic acid]"
3,19,"Cc1cc(-c2ccccc2[C@@H](C)OC[C@H](O)CNC(C)(C)Cc2cc(F)c(Cl)cc2F)ccc1C(=O)O [Example 1-25, 2′-[1-[(2R)-3-[[1-(4-chloro-2,5-difluorophenyl)-2-methylpropan-2-yl]amino]-2-hydroxypropoxy]ethyl]-3-methylbiphenyl-4-carboxylic acid]"
4,16,"Cc1ccc(CC(C)(C)NC[C@@H](O)CO[C@H](C)c2ccccc2-c2cc(C)c(C(=O)O)c(C)c2)cc1F [Example 1-43, 2′-[1-[(2R)-3-[[1-(3-fluoro-4-methylphenyl)-2-methylpropan-2-yl]amino]-2-hydroxypropoxy]ethyl]-3,5-dimethylbiphenyl-4-carboxylic acid]"
5,9,"C[C@@H](OC[C@H](O)CNC(C)(C)Cc1ccc2ccccc2c1)c1ccccc1-c1ccc(CO)c(C(=O)O)c1 [Example 1-44, 4-(hydroxymethyl)-2′-[1-[(2R)-3-[[1-(naphthalen-2-yl)-2-methylpropan-2-yl]amino]-2-hydroxypropoxy]ethyl]biphenyl-3-carboxylic acid]"
6,7,"CC(OC[C@H](O)CNC(C)(C)Cc1ccc2ccccc2c1)c1ccccc1-c1ccc(C(=O)O)c(C(F)(F)F)c1 (stereo partly drawn) [Example 1-28, 2′-[1-[(2R)-3-[[1-(naphthalen-2-yl)-2-methylpropan-2-yl]amino]-2-hydroxypropoxy]ethyl]-3-(trifluoromethyl)biphenyl-4-carboxylic acid]"
7,5,"C[C@@H](OC[C@H](O)CNC(C)(C)Cc1ccc(Cl)c(Cl)c1)c1ccccc1-c1ccc(C(=O)O)c(C(F)(F)F)c1 [Example 1-31, 2′-[1-[(2R)-3-[[1-(3,4-dichlorophenyl)-2-methylpropan-2-yl]amino]-2-hydroxypropoxy]ethyl]-3-(trifluoromethyl)biphenyl-4-carboxylic acid]"
8,4,"CCc1cc(-c2ccccc2[C@@H](C)OC[C@H](O)CNC(C)(C)Cc2ccc(Cl)c(F)c2)ccc1C(=O)O [Example 1-51, 3-ethyl-2′-[1-[(2R)-3-[[1-(4-chloro-3-fluorophenyl)-2-methylpropan-2-yl]amino]-2-hydroxypropoxy]ethyl]biphenyl-4-carboxylic acid]"
9,3,"Cc1c(C(=O)O)ccc(-c2ccccc2[C@@H](C)OC[C@H](O)CNC(C)(C)Cc2ccc3ccccc3c2)c1C [Example 1-37, 2,3-dimethyl-2′-[1-[(2R)-3-[[1-(naphthalen-2-yl)-2-methylpropan-2-yl]amino]-2-hydroxypropoxy]ethyl]biphenyl-4-carboxylic acid]"
10,3,"Cc1cc(-c2ccccc2[C@@H](C)OC[C@H](O)CNC(C)(C)Cc2ccc3ccccc3c2)cc(C)c1C(=O)O [Example 1-40, 3,5-dimethyl-2′-[1-[(2R)-3-[[1-(naphthalen-2-yl)-2-methylpropan-2-yl]amino]-2-hydroxypropoxy]ethyl]biphenyl-4-carboxylic acid]"
11,3,"Cc1ccc(CC(C)(C)NC[C@@H](O)CO[C@H](C)c2ccccc2-c2ccc(C(=O)O)c(CC(C)C)c2)cc1F [Example 1-46, 2′-[1-[(2R)-3-[[1-(3-fluoro-4-methylphenyl)-2-methylpropan-2-yl]amino]-2-hydroxypropoxy]ethyl]-3-isobutylbiphenyl-4-carboxylic acid]"
